Patent publication US20250171511A1, “ANTIVIRAL PEPTIDES AND METHODS OF USE THEREOF” (Versitech Limited, priority 2021, published 2025)
Read-outs that look alike come from different tables or passages of the source. Where no end group is shown, it is not given here. 4MPA = not defined here

Assays:
SARS-CoV-2 [1] = assay: Viral entry fluorescence assay; format: cell-based
SARS-CoV-2 (B.1.1.63) = assay: Pre-exposure antiviral activity in hamsters; format: in vivo, hamster
SARS-CoV-2 [2] = assay: Transmission electron microscopy assay; details: virus pretreated
Method: To determine the effect of 4H30 on viral particles, SARS-CoV-2 was pretreated by 100 μg ml^−1 of 4H30 or H30 for 1 h. The virus was fixed by formalin for overnight. For spike treated by 4H30 or H30, spike (100 μg ml^−1 mixed with 50 μg ml^−1 of 4H30 or H30. Viral or protein samples were applied to continuous carbon grids. The grids were transferred into 4% uranyl acetate and incubated for 1 min. After removing the solution, the grids were air-dried at room temperature. For each peptide/DNA nanoparticle, three independent experiments were done for taking TEM images by FEI Tecnal G2-20 TEM or Philips CM100-TEM.

[3] = ELISA binding of 4H30 to chondroitin sulfate; details: compared with BSA
VeroE6 cells = assay: MTT cytotoxicity assay in VeroE6 cells; format: cell-based
Method: Cytotoxicity of peptides was determined by the detection of 50% cytotoxic concentration (CC50) using a tetrazolium-based colorimetric MTT assay (H. Zhao, et al., Sci Rep, 6 (2016) 22008). Briefly, cells were seeded in 96-well cell culture plate at an initial density of 4×10^4 cells per well in DMEM supplemented with 10% FBS and incubated for overnight. Cell culture media were removed and then DMEM supplemented with various concentrations of peptides and 1% FBS were added to each well. After 24 h incubation at 37° C., MTT solution (5 mg ml^−1, 10 μl per well) was added to each well for incubation at 37° C. for 4 h. Then, 100 μl of 10% SDS in 0.01M HCl was added to each well. After further incubation at room temperature with shaking overnight, the plates were read at OD570 using VictorTM X3 Multilabel Reader (PerkinElmer, USA). Cell culture wells without peptides were used as the experiment control and medium only served as a blank control.

[4] = system: spike-ACE2 mediated fusion; format: cell-based; details: endocytosis pathway

With “GAICHPVFCPRRYKQIGTCGLPGTKCCKKP-4MPA (cysteine pairing not given here; reading uncertain; also: printed as GAICHPVFCPRRYKQIGTCGLPGTKCCKKP-4MPA) [Peptide 4H30]” the “viral clustering and entry” value (SARS-CoV-2 [1]) was “did not cluster viral particles and did not block viral entry”, the “viral clustering and entry” value (SARS-CoV-2 [1]; virus pretreated, Calu-3 and VeroE6 cells) was “cross-link SARS-CoV-2 to form big viral clusters on Calu-3 and VeroE6 cell membrane without viral entry” and the “syncytia and epithelial cell disorder in bronchial tree” value (SARS-CoV-2 (B.1.1.63); 4H30-0.05) was “not found”. The “SARS-CoV-2 replication in lungs” value (SARS-CoV-2 (B.1.1.63); hamster, in vivo) was “significantly inhibited SARS-CoV-2 replication”, the antiviral activity (SARS-CoV-2 (B.1.1.63); hamster, in vivo) was “did not show antiviral activity” and the “reduction of viral replication” value (SARS-CoV-2 (B.1.1.63); hamster, in vivo) was 2.3 fold. The “viral replication in lungs” value (SARS-CoV-2 (B.1.1.63); hamster, in vivo) was “significantly inhibited viral replication”, the “integrity of viral particles under TEM” value (SARS-CoV-2 [2]) was “did not disrupt viral particles” and the “viral clusters under TEM” value (SARS-CoV-2 [2]) was “cross-linked SARS-CoV-2 to form bigger viral clusters”. The “binding to chondroitin sulfate (CS)” value [3] was “effectively bind”, the TC50 (VeroE6 cells) was “higher than 400 μg ml^−1” and the “spike-ACE2 mediated cell fusion” value [4] was “blocking of spike-ACE2 mediated fusion”.
